Results as given in patent US11890382B2, “Edible plant-derived microvesicle compositions for diagnosis and treatment of disease” (University of Louisville Research Foundation, Inc., priority 2011, dated 2024).

Key:
A549 cells = assay: Uptake of labeled EPNVs by A549 cells; type: cell-based, human; settings: 37° C.; sodium azide 50 mM, 3 and 6 hour
Procedure: For uptake experiments, tumor cells were grown in 12-well plates with Eagle's minimal essential medium (EMEM) in the presence of 10% fetal bovine serum (FBS) for 24 h. […] After washing with cold PBS 5×, cells were trypsinized with 0.25% Trypsin-EDTA (Invitrogen, Carlsbad, CA) and washed an additional two time. Finally, the cells were resuspended in flow cytometry buffer and analyzed by flow cytometry (BD Accuri™ C6 Cytometer, New Jersey USA) and FlowJo Version 7.6 software (TreeStar Inc). The data presented were based on the mean fluorescence signal for 50,000 cells collected. All assays were performed in triplicate. […]
The cultured cells were then washed with PBS 3×. The percentages of PKH26^+ cells were quantified by FACS analysis (BD Accuri™ Flow Cytometer) and FlowJo Version 7.6 software (TreeStar Inc.).
After washing 3×, PKH26+ cells was analyzed using FACS.
After washing 3× with PBS (pH7.4), PKH26^+ cells were determined by FACS analysis as previously described. Cells exposed to the vehicle (PBS; pH 7.4), served as a control for intrinsic fluorescence, both in the presence and the absence of 50 mM sodium azide. The data were analyzed by FACS (BD Accuri™ Flow Cytometer) and FlowJo Version 7.6 software (TreeStar Inc). […]

[1] = test system: CT26, SW620 and 4T1 tumors; assay: EPNV mediated targeting and therapy, statements for all three tumor models; settings: mouse
Procedure: In the first set experiments, six-week-old female BALB/c-SCID mice (Jackson Lab) were injected subcutaneously with the human colon cancer SW620 cell line (5.0×10^6 cells/mouse in 50 μl of PBS). In the second set of experiments, six-week-old female BALB/c mice (Jackson Lab) were injected subcutaneously with murine colon cancer CT26 cell line (1.0×10^6 cells/mouse in 50 μl of PBS). In the third set of experiments, six-week-old female BALB/c mice (Jackson Lab) were injected at a mammary fat pad with the murine breast tumor 4T1cell line (1.0×10^6 cells/mouse in 50 μl of PBS). […] Growth of the tumors was measured.

[2] = Liver enzymes (ALT, GST) after oral treatment; type: in vivo, mice; settings: last day of treatment
Description: At least ten mice were included per group.
Arthritis was induced using a standard protocol.

[3] = test system: colitis-associated cancer (CAC); assay: AOM/DSS colitis-associated colon cancer model; type: in vivo, mice; settings: gavaged at 4 mg/kg every other day for 3 weeks
Procedure: Colitis-associated colorectal cancer (CAC) was induced as described below. Six to seven week old female mice were injected intraperitoneally (IP) with 12.5 mg/kg azoxymethane (AOM; Sigma-Aldrich Chemical Co, St. Louis, MO). Beginning on the same day, mice were provided […] dextran sulfate sodium (DSS; MP Biomedicals, Solon, OH, molecular weight 35,000-50,000 […]) water for 7 days followed by 14 days of untreated drinking water. Mice were subjected to two more DSS water—untreated drinking water cycles followed by untreated water for 28 days. […] At the termination of the study, mice were sacrificed by CO2 asphyxiation and all organs were carefully inspected for macroscopic pathological lesions. The intestines, liver, and spleen were removed, and fixed in 10% buffered formalin for a minimum of 24 h. The colon was excised, flushed with saline, the length measured, cut open longitudinally, flattened on filter paper and washed with saline. Macroscopic inspection of the colons was carefully carried out, with the number, size and location of visible tumors recorded.
Mice received a single injection of azoxymethane (AOM, 10 mg/kg body weight), followed by administration of three cycles of dextran sulfate sodium (DSS, 2% in water) as outlined in FIG. 4.

LPS induced septic shock = assay: LPS mouse septic shock model; type: in vivo, C57BL/6 mice; settings: amount equal to that in GELP-Cur; PBS 9/10
Description: PBS and GELPs alone (equal to the amount in GELPs-Cur) were used as controls. Mouse mortality was monitored over a period of 4 days.
Using an identical treatment protocol as described above, GELP-Cur-treatment led to 100% protection of C57BL/6 mice (10 mice/group) against LPS induced sepsis in a murine model.

| SMILES | effect of inhibitor on uptake of PKH26-EPNV by A549 cells (A549 cells) | further results |
| --- | --- | --- |
| N=C(N)NC(=O)c1nc(Cl)c(N)nc1N [Amiloride] | did not affect |  |
| CC(=O)O[C@H]1C(=O)[C@@]2(C)[C@H]([C@H](OC(=O)c3ccccc3)[C@]3(O)C[C@H](OC(=O)[C@H](O)[C@@H](NC(=O)c4ccccc4)c4ccccc4)C(C)=C1C3(C)C)[C@]1(OC(C)=O)CO[C@@H]1C[C@@H]2O [PTX, paclitaxel] |  | in vivo biodistribution in sacrificed tumor bearing mice [1]: mainly targeted liver and spleen |
| CO/C1=C\C(C)=C\[C@@H](C)[C@@H](O)[C@@H](C)C/C(C)=C/C=C/[C@H](OC)[C@@H]([C@@H](C)[C@@H](O)[C@H](C)[C@@]2(O)C[C@@H](O)[C@H](C)[C@@H](C(C)C)O2)OC1=O [bafilomycin A1] | markedly inhibited |  |
| CN(C)CCCN1c2ccccc2Sc2ccc(Cl)cc21 [chlorpromazine] | greatly diminished |  |
| C=C1[C@@H](C)[C@H]2[C@H](Cc3ccccc3)NC(=O)[C@]23[C@H](OC(C)=O)/C=C/[C@@](C)(O)C(=O)[C@@H](C)C/C=C/[C@H]3[C@@H]1O [cytochalasin D] | greatly diminished |  |
| COc1cc(/C=C/C(=O)CC(=O)/C=C/c2ccc(O)c(OC)c2)ccc1O [free curcumin, curcumin] |  | liver enzyme ALT versus PBS group ([2]; ALT (36±8.1 U/I)): not significantly different; liver enzyme GST versus PBS group ([2]; GST (25±5.2)): not significantly different; average tumor number per mouse [3]: 8.5; mice died (LPS induced septic shock): 8/10 |
| COc1ccc2c(c1)c(CC(=O)O)c(C)n2C(=O)c1ccc(Cl)cc1 [indomethacin] | did not affect |  |
| COC(=O)Nc1nc2ccc(C(=O)c3cccs3)cc2[nH]1 [nocodazole] | greatly diminished |  |
